Consider 8 molecules from patent publication US20070155698A1, “Oxazaborolidines as bacteria effectors” (priority 2003, published 2007).

One series concerns S. mutans ATCC 27351. The experiment in a line: Minimal inhibitory concentration (MIC), turbidity of overnight growth. It counts as cell-based. Conditions: for MIC: Streptococcus mutans, read-out: MIC Mean. The protocol:
Sterile microculture dishes containing multiple wells were used to determine the minimal inhibitory concentration MIC) of eight derivatives of oxazborolidines. Each well contained 120 μl of brain heart infusion medium, 15 μl of an overnight suspension of S. mutans ATCC 27351 adjusted to 1 OD540 nm and 15 μl of the tested compound. Each compound was tested at five different concentrations between 0-50 mM. Each experiment was repeated twice. These cultures were incubated at 37° C. in atmosphere enriched in 5% CO2 for 24 hours. Bacteria growth was determined as turbidity of the over night growth and was determined by computerized ELISA reader (Thermomax microplate reader, Molecular Devices, USA) at 650 nm. Control cultures of bacteria with no oxazaborolidines added and media broth with the oxzaborilidines added but with no bacteria were conducted.

The subject of series [1] is AI-2 reporter strain Vibrio harveyi BB170. Put plainly: Induction of bioluminescence in the AI-2 reporter strain (quorum sensing). It counts as cell-based. The protocol: Bright overnight culture was diluted 1:5000 and the bioluminescence was traced along growth of the diluted bacterial culture. BNO-1 in tested concentrations was added at start of the bacterial growth. For calculation of fold induction was used the bioluminescence levels at 3 hr after start of the growth.
(§1) Luminescence was monitored by Lumac/3M Biocounter M2010, Netherlands. Culture density was measured as CFU on selective solid LM (L-marine) medium per ml of culture. Relative luminescence (“bioluminescence” in figures) was calculated as quotient of luminescence and culture density and expressed in relative light units (RLU, count/10^6 CFU).
(§2) Fold induction was calculated as relation between induced by BNO-1 and not induced relative luminescence. A measure of inhibition was defined as relation of induced by AI-2 relative luminescence in the presence and in the absence of BNO-2.

The subject of series [2] is bacterial adhesion to hydroxyapatite (HA) beads. Put plainly: Adhesion of radioactively labeled bacteria to hydroxyapatite beads. The format is cell-based. Particulars: 60 mM. The protocol: 40 mg samples of hydroxyapatite (HA) beads (Ceramic hydroxyapatite type I, 80 um, Bio-Rad Laboratories, Hercules, Calif., USA)) (surface area, 0.63 cm^2/mg) were equilibrated with 3 washes of buffered KCl to which 250 μl of labeled radioactive bacteria (prepared as described above), 400 μl of the tested boronic compound and 50 μl of 700 mM sucrose (in KCl buffer solution) were added. The mixture was incubated for 60 min at 37 C with gentle rotation. At the end of the incubation period, the beads were washed 3 times with buffered KCl for removal of unbound components, especially the non-adsorbed labeled bacteria, and then rinsed with 2 ml ethanol into vials containing 10 ml scintillation fluid (Ecoscint A, National Diagnostics, Manville, N.J.). The amount of radioactively labeled bacteria adsorbed onto the HA beads was measured by scintillation counting (BETAmatic scintillation counter (Koutron®, Basel, Switzerland). Results are expressed as percent of bacterial adhesion in comparison to a control group containing no agent.

In series [3] the test system is AI-2 reporter strain Vibrio harveyi BB170. The experiment in a line: Inhibition of AI-2-induced bioluminescence (quorum sensing). The format is cell-based. Particulars: added together with exogenous AI-2. The protocol: Bright overnight culture was diluted 1:5000 and the bioluminescence was traced along growth of the diluted bacterial culture at the presence of AI-2 which was added at start of the bacterial growth in the induced concentration. BNO-2 in tested concentrations was added at start of the bacterial growth. The residual bioluminescence is expressed as part of maximal, AI-2-inducted and non-inhibited bioluminescence. For the calculation was used bioluminescence level at 2.5 hr after start of the growth.
as §1, §2

A short description of series [4]: Effect of pH on the oxazaborolidine derivatives (11B NMR). Particulars: pH=10.8. The format is physicochemical. An excerpt: At pH=10.8, the free n-butylboronic acid has a chemical shift of 19.974 ppm, while BNO3, the B-butyl containing derivative gives two peaks, one at 24.868 ppm (90%) which is the intermediate and a peak at 6.8 ppm (10%) that belongs to the mentioned above complex. At further basic conditions, a peak at 5.2 ppm exist which indicate a complete conversion to an ate-complex moiety.
On the other hand, the B-phenyl containing derivatives are converted to the ate-complex once they are fully dissolved in H2O, the ate-complex appears at 5.461 ppm in the ^11B NMR.

Where [5] appears, read: ATCC27351, S. mutans, 24 hours, 37° C.

≈ marks a conversion by molar mass, not a printed value. Read-outs that look alike come from different tables or passages of the source.

In general, MIC refers to the least concentration at which growth counts as inhibited.

On to `CC1C(c2ccccc2)OB(c2ccccc2)N1C` (stereo not drawn) [BNO1, 3,4-dimethyl-2,5-diphenyl-1,3,2-oxazaborolidine], for which the “antibacterial efficacy against S. mutans (MIC based, in words)” value (from here on “antibacterial efficacy against S. mutans”) with S. mutans ATCC 27351 is “most active”. For the same molecule, the “MIC Range” value with S. mutans ATCC 27351 (S. mutans, 24 hours, 37° C.) was in the range of 0.77 to 2.33 mM. The MIC in the series on S. mutans ATCC 27351 (ATCC27351, 24 h) turned out to be 1550 µM (≈ 389 µg/mL). Also, the “induction of bioluminescence of Vibrio harveyi BB170” value in series [1] (dose dependent, sensor 1− sensor 2+) is given as “induced”. In addition, in series [1] (sensor 2− mutants), the “induction of bioluminescence in mutants with sensor 2−” value is “do not react”.
For `CC1(C)COB(c2ccccc2)N1` [BNO2, 4,4-dimethyl-2-phenyl-1,3,2-oxazaborolidine], the “MIC Range” value with S. mutans ATCC 27351 (S. mutans, 24 hours, 37° C.) is 2 to 10 mM. Besides, the MIC with S. mutans ATCC 27351 (setting [5]) stood at 6000 µM (≈ 1050 µg/mL). Also, the “promotion of bacterial adhesion” value in series [2] was found to be 37%. For the same molecule, the “inhibition of the ability of exogenous AI-2 to induce bioluminescence” value in series [3] is “strongly inhibited”.
In the case of `CCCCB1NC(C)(C)CO1` [BNO3, 2-butyl-4,4-dimethyl-1,3,2-oxazaborolidine], the “MIC Range” value against S. mutans ATCC 27351 (S. mutans, 24 hours, 37° C.) lay in the range of 2.25 to 4.5 mM. The MIC in the series with S. mutans ATCC 27351 (setting [5]) amounted to 3380 µM (≈ 524 µg/mL). Further, the “reduction of bacterial capability to adhere to hydroxyapatite surface” value in series [2] is 63%. Moreover, in series [4], the “share of ate-complex (11B NMR peak at 6.8 ppm)” value amounted to 10% and the “share of intermediate (11B NMR peak at 24.868 ppm)” value stood at 90%.
For the molecule `CC1NB(c2ccccc2)OC1c1ccccc1` (stereo not drawn) [BNO4, 4-methyl-2,5-diphenyl-1,3,2-oxazaborolidine], the “MIC Range” value against S. mutans ATCC 27351 (S. mutans, 24 hours, 37° C.) lay in the range of 0.90 to 1.75 mM. The MIC in the series on S. mutans ATCC 27351 (setting [5]) was determined as 1330 µM (≈ 315 µg/mL).
Turning to `CCCCB1OC(c2ccccc2)C(C)N1C` (stereo not drawn) [BNO5, 2-butyl-3,4-dimethyl-5-phenyl-1,3,2-oxazaborolidine], the “antibacterial efficacy against S. mutans” value in the series on S. mutans ATCC 27351 is given as “most active”. In addition, the “MIC Range” value against S. mutans ATCC 27351 (S. mutans, 24 hours, 37° C.) is 0.26 to 0.80 mM. In addition, in the series on S. mutans ATCC 27351 (setting [5]), the MIC was found to be 530 µM (≈ 123 µg/mL).
As for `CCCCB1NC(C)C(c2ccccc2)O1` (stereo not drawn) [BNO6, 2-butyl-4-methyl-5-phenyl-1,3,2-oxazaborolidine], in the series on S. mutans ATCC 27351 (S. mutans, 24 hours, 37° C.), the “MIC Range” value is 1.90 to 3.75 mM. Moreover, the MIC in the series with S. mutans ATCC 27351 (setting [5]) came to 2830 µM (≈ 614 µg/mL).
Turning to “[(2-)-N,O,O′[2,2′-Iminobis[ethanolato]]]-2-n-butylboron [BNO7]”, the “antibacterial efficacy against S. mutans” value in the series on S. mutans ATCC 27351 is recorded as “weakest activity”. Moreover, in the series with S. mutans ATCC 27351 (S. mutans, 24 hours, 37° C.), the “MIC Mean” value was 6750 µM and the “MIC Range” value is 4.5 to 9.0 mM.
The matching figures for “[(2-)-N,O,O′[2,2′-Iminobis[ethanolato]]]-2-phenylboron [BNO8]”: “weakest activity”, 6750 µM and 4.5-9. mM.
